According to patent publication US6737383B1, “Herbicidal oxadiazolidines” (priority 1999, dated 2004):

Experiments:
rape = assay: Test B pre/postemergence rape; assay type: in vivo, Brassica napus
In short: (§1)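 Herbicidal effect was estimated by eye on a ten-point control scale after plants spent twelve to sixteen days in a greenhouse following soil or foliar treatment. Foliar sprays targeted plants at one to four leaves; all doses were formulated in a non-phytotoxic solvent with surfactant.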

bamyardgrass = assay: Test B flood test barnyardgrass; assay type: in vivo, Echinochloa crus-galli
In short: (§2)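 Flood test on plants grown to the 2-leaf stage; treated plants kept in greenhouse twelve to sixteen days, then visually rated against controls on a 0 (no effect) to 10 (complete control) scale.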

smallflower flatsedge = assay: Test B flood test smallflower flatsedge; assay type: in vivo, Cyperus difformis
In short: as §2

bedstraw = assay: Test B pre/postemergence bedstraw; assay type: in vivo, Galium aparine
In short: as §1

cocklebur = assay: Test B pre/postemergence cocklebur; assay type: in vivo, Xanthium strumarium
In short: as §1

giant foxtail = assay: Test B pre/postemergence giant foxtail; assay type: in vivo, Setaria faberii
In short: as §1

morningglory = assay: Test B pre/postemergence morningglory; assay type: in vivo, Ipomoea hederacea
In short: as §1

sugar beet = assay: Test B pre/postemergence sugar beet; assay type: in vivo, Beta vulgaris
In short: as §1

purple nutsedge = assay: Test B pre/postemergence purple nutsedge; assay type: in vivo, Cyperus rotundus
In short: as §1

soybean = assay: Test B pre/postemergence soybean; assay type: in vivo, Glycine max
In short: as §1

wild oat = assay: Test B pre/postemergence wild oat; assay type: in vivo, Avena fatua
In short: as §1

duck salad = assay: Test B flood test duck salad; assay type: in vivo, Heteranthera limosa
In short: as §2

surinam grass = assay: Test B pre/postemergence surinam grass; assay type: in vivo, Brachiaria decumbens
In short: as §1

pigweed = assay: Test B pre/postemergence pigweed; assay type: in vivo, Amaranthus retroflexus
In short: as §1

wheat = assay: Test B pre/postemergence wheat; assay type: in vivo, Triticum aestivum
In short: as §1

blackgrass = assay: Test B pre/postemergence blackgrass; assay type: in vivo, Alopecurus myosuroides
In short: as §1

[1] = Preemergence, Rate 62 g/ha, scale of 0 to 10 where 0 is no effect and 10 is complete control
[2] = Preemergence, Rate 125 g/ha, 0 is no effect, 10 is complete control
[3] = Preemergence, Rate 250 g/ha, scale 0 to 10, 0 is no effect, 10 is complete control
[4] = Preemergence, Rate 500 g/ha, scale of 0 to 10 where 0 is no effect and 10 is complete control
[5] = Rate 62 g/ha, Postemergence, scale of 0 to 10 where 0 is no effect and 10 is complete control
[6] = Rate 125 g/ha, Postemergence, scale 0 to 10
[7] = Rate 500 g/ha, Postemergence, scale 0 to 10
[8] = Rate 62 g/ha, headed Pre-emergence (flood test species), scale 0 to 10 (0 no effect, 10 complete control)
[9] = Rate 125 g/ha, Pre-emergence, flood test species, scale 0 to 10 where 0 is no effect and 10 is complete control
[10] = Rate 250 g/ha, Pre-emergence, flood-test species, scale 0 to 10, 0 is no effect, 10 is complete control
[11] = Rate 500 g/ha, Pre-emergence, flood test species, scale 0 to 10 (0 no effect, 10 complete control)

Q: With CC(C)N(C(=O)n1oc(=O)n(Cc2ccco2)c1=O)c1ccc(F)cc1F [Compound 208] as the molecule, how does the “Rape plant response rating” value (rape; [1]) read?
A: 0

Q: And the “Rape plant response rating (0 to 10 scale)” value (rape; [2])?
A: 0

Q: What about the “Rape plant response rating” value (rape; [3]) of the same molecule?
A: 0

Q: What about the “Plant response rating, Rape” value (rape; [4]) of the same molecule?
A: 0

Q: What about the “Rape plant response rating” value (rape; [5]) of the same molecule?
A: 0

Q: And the “Rape plant response rating” value (rape; [6])?
A: 0

Q: And the “Plant response rating (0 to 10; 0 is no effect, 10 is complete control), Rape” value (rape; Rate 250 g/ha, Postemergence)?
A: 0

Q: And the “Rape plant response rating” value (rape; [7])?
A: 0

Q: What about the “Barnyardgrass plant response rating” value (bamyardgrass; [8]) of the same molecule?
A: 0

Q: What about the “Barnyardgrass plant response rating” value (bamyardgrass; [9]) of the same molecule?
A: 0

Q: What about the “Barnyardgrass plant response rating” value (bamyardgrass; [10]) of the same molecule?
A: 0

Q: What about the “Barnyardgrass plant response rating” value (bamyardgrass; [11]) of the same molecule?
A: 0

Q: What about the “S. Flatsedge plant response rating” value (smallflower flatsedge; [8]) of the same molecule?
A: 0

Q: What about the “S. Flatsedge plant response rating” value (smallflower flatsedge; [9]) of the same molecule?
A: 0

Q: What about the “S. Flatsedge plant response rating” value (smallflower flatsedge; [10]) of the same molecule?
A: 0

Q: And the “S. Flatsedge plant response rating” value (smallflower flatsedge; [11])?
A: 0

Q: What about the “Bedstraw plant response rating” value (bedstraw; [1]) of the same molecule?
A: 0

Q: And the “Bedstraw plant response rating (0 to 10 scale)” value (bedstraw; [2])?
A: 0

Q: And the “Bedstraw plant response rating” value (bedstraw; [3])?
A: 0

Q: And the “Plant response rating, Bedstraw” value (bedstraw; [4])?
A: 0

Q: What about the “Bedstraw plant response rating” value (bedstraw; [5]) of the same molecule?
A: 0

Q: What about the “Bedstraw plant response rating” value (bedstraw; [6]) of the same molecule?
A: 0

Q: What about the “Plant response rating (0 to 10; 0 is no effect, 10 is complete control), Bedstraw” value (bedstraw; Rate 250 g/ha, Postemergence) of the same molecule?
A: 0

Q: And the “Bedstraw plant response rating” value (bedstraw; [7])?
A: 5

Q: And the “Cocklebur plant response rating” value (cocklebur; [1])?
A: 0

Q: What about the “Cocklebur plant response rating (0 to 10 scale)” value (cocklebur; [2]) of the same molecule?
A: 0

Q: What about the “Cocklebur plant response rating” value (cocklebur; [3]) of the same molecule?
A: 0

Q: And the “Plant response rating, Cocklebur” value (cocklebur; [4])?
A: 0

Q: And the “Cocklebur plant response rating” value (cocklebur; [5])?
A: 0

Q: And the “Cocklebur plant response rating” value (cocklebur; [6])?
A: 0

Q: What about the “Plant response rating (0 to 10; 0 is no effect, 10 is complete control), Cocklebur” value (cocklebur; Rate 250 g/ha, Postemergence) of the same molecule?
A: 0

Q: What about the “Cocklebur plant response rating” value (cocklebur; [7]) of the same molecule?
A: 0

Q: What about the “Giant foxtail plant response rating” value (giant foxtail; [1]) of the same molecule?
A: 2

Q: What about the “Giant foxtail plant response rating (0 to 10 scale)” value (giant foxtail; [2]) of the same molecule?
A: 8

Q: What about the “Giant foxtail plant response rating” value (giant foxtail; [3]) of the same molecule?
A: 9

Q: What about the “Plant response rating, Giant foxtail” value (giant foxtail; [4]) of the same molecule?
A: 10

Q: What about the “Giant foxtail plant response rating” value (giant foxtail; [5]) of the same molecule?
A: 0

Q: What about the “Giant foxtail plant response rating” value (giant foxtail; [6]) of the same molecule?
A: 0

Q: What about the “Plant response rating (0 to 10; 0 is no effect, 10 is complete control), Giant foxtail” value (giant foxtail; Rate 250 g/ha, Postemergence) of the same molecule?
A: 0

Q: What about the “Giant foxtail plant response rating” value (giant foxtail; [7]) of the same molecule?
A: 1

Q: And the “Morningglory plant response rating” value (morningglory; [1])?
A: 0

Q: And the “Morningglory plant response rating (0 to 10 scale)” value (morningglory; [2])?
A: 0

Q: What about the “Morningglory plant response rating” value (morningglory; [3]) of the same molecule?
A: 0

Q: What about the “Plant response rating, Morningglory” value (morningglory; [4]) of the same molecule?
A: 0

Q: And the “Morningglory plant response rating” value (morningglory; [5])?
A: 1

Q: What about the “Morningglory plant response rating” value (morningglory; [6]) of the same molecule?
A: 1

Q: And the “Plant response rating (0 to 10; 0 is no effect, 10 is complete control), Morningglory” value (morningglory; Rate 250 g/ha, Postemergence)?
A: 1

Q: What about the “Morningglory plant response rating” value (morningglory; [7]) of the same molecule?
A: 3

Q: What about the “Sugarbeets plant response rating” value (sugar beet; [1]) of the same molecule?
A: 0

Q: What about the “Sugarbeets plant response rating (0 to 10 scale)” value (sugar beet; [2]) of the same molecule?
A: 0

Q: What about the “Sugarbeets plant response rating” value (sugar beet; [3]) of the same molecule?
A: 0

Q: What about the “Plant response rating, Sugarbeets” value (sugar beet; [4]) of the same molecule?
A: 0

Q: And the “Sugarbeets plant response rating” value (sugar beet; [5])?
A: 0

Q: And the “Sugarbeets plant response rating” value (sugar beet; [6])?
A: 0

Q: What about the “Plant response rating (0 to 10; 0 is no effect, 10 is complete control), Sugarbeets” value (sugar beet; Rate 250 g/ha, Postemergence) of the same molecule?
A: 0

Q: And the “Sugarbeets plant response rating” value (sugar beet; [7])?
A: 0

Q: What about the “Nutsedge plant response rating” value (purple nutsedge; [1]) of the same molecule?
A: 0

Q: What about the “Nutsedge plant response rating (0 to 10 scale)” value (purple nutsedge; [2]) of the same molecule?
A: 0

Q: What about the “Nutsedge plant response rating” value (purple nutsedge; [3]) of the same molecule?
A: 0

Q: What about the “Plant response rating, Nutsedge” value (purple nutsedge; [4]) of the same molecule?
A: 0

Q: And the “Nutsedge plant response rating” value (purple nutsedge; [5])?
A: 0

Q: What about the “Nutsedge plant response rating” value (purple nutsedge; [6]) of the same molecule?
A: 0

Q: What about the “Plant response rating (0 to 10; 0 is no effect, 10 is complete control), Nutsedge” value (purple nutsedge; Rate 250 g/ha, Postemergence) of the same molecule?
A: 0

Q: What about the “Nutsedge plant response rating” value (purple nutsedge; [7]) of the same molecule?
A: 0

Q: What about the “Soybean plant response rating” value (soybean; [1]) of the same molecule?
A: 0

Q: And the “Soybean plant response rating (0 to 10 scale)” value (soybean; [2])?
A: 0

Q: And the “Soybean plant response rating” value (soybean; [3])?
A: 0

Q: What about the “Plant response rating, Soybean” value (soybean; [4]) of the same molecule?
A: 0

Q: And the “Soybean plant response rating” value (soybean; [5])?
A: 1

Q: What about the “Soybean plant response rating” value (soybean; [6]) of the same molecule?
A: 1

Q: What about the “Plant response rating (0 to 10; 0 is no effect, 10 is complete control), Soybean” value (soybean; Rate 250 g/ha, Postemergence) of the same molecule?
A: 2

Q: And the “Soybean plant response rating” value (soybean; [7])?
A: 2

Q: And the “Wild oats plant response rating” value (wild oat; [1])?
A: 0

Q: And the “Wild oats plant response rating” value (wild oat; [3])?
A: 0

Q: And the “Plant response rating, Wild oats” value (wild oat; [4])?
A: 3

Q: What about the “Wild oats plant response rating” value (wild oat; [5]) of the same molecule?
A: 0

Q: And the “Wild oats plant response rating” value (wild oat; [6])?
A: 0

Q: And the “Plant response rating (0 to 10; 0 is no effect, 10 is complete control), Wild oats” value (wild oat; Rate 250 g/ha, Postemergence)?
A: 0

Q: What about the “Ducksalad plant response rating” value (duck salad; [8]) of the same molecule?
A: 0

Q: And the “Ducksalad plant response rating” value (duck salad; [9])?
A: 0

Q: And the “Ducksalad plant response rating” value (duck salad; [10])?
A: 0

Q: And the “Ducksalad plant response rating” value (duck salad; [11])?
A: 0

Q: What about the “B. signalgrass plant response rating” value (surinam grass; [1]) of the same molecule?
A: 0

Q: And the “B. signalgrass plant response rating (0 to 10 scale)” value (surinam grass; [2])?
A: 0

Q: What about the “B. signalgrass plant response rating” value (surinam grass; [3]) of the same molecule?
A: 0

Q: And the “Plant response rating, B. signalgrass” value (surinam grass; [4])?
A: 0

Q: And the “B. signalgrass plant response rating” value (surinam grass; [5])?
A: 0

Q: What about the “B. signalgrass plant response rating” value (surinam grass; Rate 125 g/ha, Postemergence, scale 0 (no effect) to 10 (complete control)) of the same molecule?
A: 0

Q: What about the “Plant response rating (0 to 10; 0 is no effect, 10 is complete control), B. signalgrass” value (surinam grass; Rate 250 g/ha, Postemergence) of the same molecule?
A: 0

Q: What about the “B. signalgrass plant response rating” value (surinam grass; Rate 500 g/ha, Postemergence, scale 0 to 10, 0 no effect, 10 complete control) of the same molecule?
A: 3

Q: And the “Redroot pigweed plant response rating” value (pigweed; [1])?
A: 0

Q: What about the “Redroot pigweed plant response rating (0 to 10 scale)” value (pigweed; [2]) of the same molecule?
A: 0

Q: And the “Redroot pigweed plant response rating” value (pigweed; [3])?
A: 0

Q: What about the “Plant response rating, Redroot pigweed” value (pigweed; [4]) of the same molecule?
A: 2

Q: What about the “Redroot pigweed plant response rating” value (pigweed; [5]) of the same molecule?
A: 0

Q: And the “Redroot pigweed plant response rating” value (pigweed; [6])?
A: 0

Q: What about the “Plant response rating (0 to 10; 0 is no effect, 10 is complete control), Redroot pigweed” value (pigweed; Rate 250 g/ha, Postemergence) of the same molecule?
A: 0

Q: And the “Redroot pigweed plant response rating” value (pigweed; [7])?
A: 0

Q: And the “Wheat plant response rating” value (wheat; [1])?
A: 0

Q: What about the “Wheat plant response rating” value (wheat; [3]) of the same molecule?
A: 0

Q: And the “Plant response rating, Wheat” value (wheat; [4])?
A: 0

Q: And the “Wheat plant response rating” value (wheat; [5])?
A: 0

Q: What about the “Wheat plant response rating” value (wheat; [6]) of the same molecule?
A: 0

Q: What about the “Plant response rating (0 to 10; 0 is no effect, 10 is complete control), Wheat” value (wheat; Rate 250 g/ha, Postemergence) of the same molecule?
A: 0

Q: And the “Blackgrass plant response rating” value (blackgrass; [1])?
A: 0

Q: And the “Blackgrass plant response rating (0 to 10 scale)” value (blackgrass; [2])?
A: 0

Q: And the “Blackgrass plant response rating” value (blackgrass; [3])?
A: 0

Q: What about the “Plant response rating, Blackgrass” value (blackgrass; [4]) of the same molecule?
A: 3

Q: What about the “Blackgrass plant response rating” value (blackgrass; [5]) of the same molecule?
A: 0

Q: What about the “Blackgrass plant response rating” value (blackgrass; [6]) of the same molecule?
A: 0

Q: What about the “Plant response rating (0 to 10; 0 is no effect, 10 is complete control), Blackgrass” value (blackgrass; Rate 250 g/ha, Postemergence) of the same molecule?
A: 0

Q: What about the “Blackgrass plant response rating” value (blackgrass; [7]) of the same molecule?
A: 7
